Experimental data published in US7169932B2 (priority 2001, dated 2007).
pKi: −log10 of the molar value.

Biological target: T1, HIV-1 protease (Q7S) (Human immunodeficiency virus type 1 group M subtype B, UniProt P04585, Q495S)
T1 construct: made in house
Assay: HIV-1 Protease RET Assay
Type: biochemical
Settings: Ave. Ki (nM), RET assay, Q7S enzyme, pH 4.8, 37 C
Protocol: Ki's for the inhibitors of HIV-1 protease were determined using a resonance energy transfer (RET) assay. […] This enzyme is first partially purified as inclusion bodies from cell lysate. It is then solublized in 8M urea and passed through a Q-Sepharose column (Pharmacia) for further purification. To refold this protein, samples containing Q7S is dialyzed into 50 mM sodium phosphate pH 7.0, 50 mM NaCl, 10 mM DTT, and 10% glycerol.
The commercially available peptide substrate (Molecular Probes Cat. # H-2930) RE(EDANS)SQNYPIVQK(DABCYL)R is used to assess activity and Ki's. This peptide is cleaved quantitatively by HIV-1 Pr at the Tyr-Pro bond. The EDANS fluorophore absorbs at 340 nm and emits at 490 nm. The reaction is carried out in a 96 well plate in a total volume of 100 μL and is run for 12 minutes at 37 C under steady-state conditions with 5 μM substrate and 2 nM active dimer enzyme concentration. The literature value Km for this substrate and enzyme is 103+/−8 μM (See Matayoshi, et al., “Novel Fluorogenic Substrates for Assaying Retroviral Proteases by Resonance Energy Transfer,” Science 247, 954 (1990)). The buffer for this reaction is 0.1M sodium acetate pH 4.8, 1M NaCl, 1 mM EDTA, 5 mM dithiothreitol, 10% dimethyl sulfoxide and 1 mg/ml bovine serum albumin. Inhibition curves are fit using the Morrison tight binding equation.

Q: How did the Ki turn out when `Cc1ccccc1CNC(=O)C1N(C(=O)[C@@H](O)[C@H](Cc2ccccc2)NC(=O)c2ccccn2)CSC1(C)C` (stereo partly drawn) [Example B45, Pyridine-2-carboxylic acid {(1S,2S)-1-benzyl-3-[5,5-dimethyl-4-(2-methyl-benzylcarbamoyl)-thiazolidin-3-yl]-2-hydroxy-3-oxo-propyl}-amide] was run?
A: 19.7 nM

Q: How did the Ki turn out when `CNCCNC(=O)[C@H]1N(C(=O)[C@@H](O)[C@H](Cc2ccccc2)NC(=O)c2cccc(O)c2C)CSC1(C)C` [Example A52, 3-((2S,3S)-2-Hydroxy-3-{[1-(3-hydroxy-2-methyl-phenyl)-methanoyl]-amino}-4-phenyl-butanoyl)-5,5-dimethyl-thiazolidine-4-carboxylic acid (2-methylamino-ethyl)-amide] was run?
A: 37 nM

Q: Which Ki does the source give for `Cc1ccccc1CNC(=O)[C@@H]1[C@@H](C)OCN1C(=O)[C@@H](O)[C@H](Cc1ccccc1)NC(=O)c1cccc(O)c1C` [Example C5, (4S,5R)-3-((2S,3S)-2-Hydroxy-3-{[1-(3-hydroxy-2-methyl-phenyl)-methanoyl]-amino}-4-phenyl-butanoyl)-5-methyl-oxazolidine-4-carboxylic acid 2-methyl-benzylamide] here?
A: 3.2 nM

Q: With `Cc1ccccc1CNC(=O)[C@H]1N(C(=O)[C@@H](O)[C@H](Cc2ccccc2)NC(=O)c2ccc(O)cc2C)CSC1(C)C` [Example B39, (R)-3-[(2S,3S)-2-Hydroxy-3-(4-hydroxy-2-methyl-benzoylamino)-4-phenyl-butyryl]-5,5-dimethyl-thiazolidine-4-carboxylic acid 2-methyl-benzylamide] as the compound, how does the Ki read?
A: 0.16 nM

Q: With `Cc1ccccc1CNC(=O)[C@H]1N(C(=O)[C@@H](O)[C@H](Cc2ccccc2)NC(=O)c2cccnc2)CSC1(C)C` [Example B47, N-{(1S,2S)-1-Benzyl-3-[5,5-dimethyl-4-(2-methyl-benzylcarbamoyl)-thiazolidin-3-yl]-2-hydroxy-3-oxo-propyl}-nicotinamide] as the compound, how does the Ki read?
A: 6.9 nM

Q: Which Ki does the source give for `Cc1c(O)cccc1C(=O)N[C@@H](Cc1ccccc1)[C@H](O)C(=O)N1COC(C)(C)[C@H]1C(=O)NCC#N` [Example C10, (S)-3-((2S,3S)-2-Hydroxy-3-{[1-(3-hydroxy-2-methyl-phenyl)-methanoyl]-amino}-4-phenyl-butanoyl)-5,5-dimethyl-oxazolidine-4-carboxylic acid cyanomethyl-amide] here?
A: 36 nM

Q: Which Ki does the source give for `C=CCNC(=O)[C@H]1N(C(=O)[C@@H](O)[C@H](Cc2ccccc2)NC(=O)c2cccnc2C)CSC1(C)C` [Example B49, N-[(1S,2S)-3-(4-Allylcarbamoyl-5,5-dimethyl-thiazolidin-3-yl)-1-benzyl-2-hydroxy-3-oxo-propyl]-2-methyl-nicotinamide] here?
A: 17.2 nM

Q: For `CCCNC(=O)[C@H]1N(C(=O)[C@@H](O)[C@H](Cc2ccccc2)NC(=O)c2cccc(O)c2C)COC1(C)C` [Example C7, (S)-3-((2S,3S)-2-Hydroxy-3-{[1-(3-hydroxy-2-methyl-phenyl)-methanoyl]-amino}-4-phenyl-butanoyl)-5,5-dimethyl-oxazolidine-4-carboxylic acid propylamide], which Ki is on record?
A: 7.9 nM

Q: For `Cc1cc(O)c(C)c(C(=O)N[C@@H](Cc2ccccc2)[C@H](O)C(=O)N2CSC(C)(C)[C@H]2C(=O)NCc2ccccc2C)c1` [Example B43, (R)-3-[(2S,3S)-2-Hydroxy-3-(3-hydroxy-2,5-dimethyl-benzoylamino)-4-phenyl-butyryl]-5,5-dimethyl-thiazolidine-4-carboxylic acid 2-methyl-benzylamide], which Ki is on record?
A: 0.2 nM

Q: For `Cc1ccccc1CNC(=O)[C@H]1N(C(=O)[C@@H](O)[C@H](Cc2ccccc2)NC(=O)c2ccnc(Cl)c2Cl)CSC1(C)C` [Example B41, {(1S,2S)-1-Benzyl-3-[(R)-5,5-dimethyl-4-(2-methyl-benzylcarbamoyl)-thiazolidin-3-yl]-2-hydroxy-3-oxo-propyl}-2,3-dichloro-isonicotinamide], which Ki is on record?
A: 0.15 nM

Q: `Cc1ccccc1CNC(=O)[C@H]1N(C(=O)[C@@H](O)[C@H](Cc2ccccc2)NC(=O)c2ccncc2Cl)CSC1(C)C` [Example B42, {(1S,2S)-1-Benzyl-3-[(R)-5,5-dimethyl-4-(2-methyl-benzylcarbamoyl)-thiazolidin-3-yl]-2-hydroxy-3-oxo-propyl}-3-chloro-isonicotinamide] was tested. Which Ki did it give?
A: 0.73 nM

Q: For `COc1cccc(CNC(=O)[C@H]2N(C(=O)[C@@H](O)[C@H](Cc3ccccc3)NC(=O)c3cccc(F)c3C)CSC2(C)C)c1` [Example B32, (R)-3-((2S,3S)-3-{[1-(3-Fluoro-2-methyl-phenyl)-methanoyl]-amino}-2-hydroxy-4-phenyl-butanoyl)-5,5-dimethyl-thiazolidine-4-carboxylic acid 3-methoxy-benzylamide], which Ki is on record?
A: 4.9 nM

Q: Which Ki does the source give for `Cc1noc(C)c1C(=O)NC(Cc1ccccc1)C(O)C(=O)N1CSC(C)(C)C1C(=O)NCc1ccccc1C(F)(F)F` (stereo not shown) [Example B27, 3,5-Dimethyl-isoxazole-4-carboxylic acid {1-benzyl-3-[5,5-dimethyl-4-(2-trifluoromethyl-benzylcarbamoyl)-thiazolidin-3-yl]-2-hydroxy-3-oxo-propyl}-amide] here?
A: 3.5 nM

Same assay, conditions: Ki, table of drawn compounds, unit inferred

Q: With `Cc1ccccc1CNC(=O)[C@H]1N(C(=O)[C@@H](O)[C@H](Cc2ccccc2)NC(=O)C2=CCCC2)CSC1(C)C` as the compound, how does the pKi read?
A: 8.47

Q: With `Cc1c(O)cccc1C(=O)N[C@@H](Cc1ccccc1)[C@H](O)C(=O)N1CSC(C)(C)[C@H]1C(=O)NCC(C)C` as the compound, how does the pKi read?
A: ≥ 10.00

Q: `COc1cccc(C(=O)[C@H]2N(C(=O)[C@@H](O)[C@H](Cc3ccccc3)NC(=O)c3cccc(O)c3C)CSC2(C)C)c1` was tested. Which pKi did it give?
A: 8.13

Q: `Cc1c(O)cccc1C(=O)N[C@@H](Cc1ccccc1)[C@H](O)C(=O)N1CSC(C)(C)C1C(=O)NCCc1ccc(O)cc1` (stereo partly shown) was tested. Which pKi did it give?
A: 7.88

Q: With `Cc1ccccc1CNC(=O)[C@H]1N(C(=O)[C@@H](O)[C@H](Cc2ccccc2)NC(=O)c2cccnc2Cl)CSC1(C)C` as the compound, how does the pKi read?
A: 9.12

Q: How did the pKi turn out when `Cc1c(O)cccc1C(=O)N[C@@H](Cc1ccccc1)[C@H](O)C(=O)N1CSC(C)(C)[C@H]1C(=O)NCc1cccc(C(F)(F)F)c1F` was run?
A: 7.21

Q: How did the pKi turn out when `CCC(C)CNC(=O)[C@H]1N(C(=O)[C@@H](O)[C@H](Cc2ccccc2)NC(=O)c2cccc(O)c2C)CSC1(C)C` (stereo partly shown) was run?
A: ≥ 10.00

Q: How did the pKi turn out when `Cc1ccccc1CNC(=O)[C@H]1N(C(=O)[C@@H](O)[C@H](Cc2ccccc2)NC(=O)C2CCCC2)CSC1(C)C` was run?
A: 7.92

Same assay, conditions: RET assay, Q7S enzyme, pH 4.8, 37 C; read-out: Ave. Ki

Q: `Cc1ccccc1CNC(=O)[C@@H]1CC(F)(F)CN1C(=O)[C@@H](O)[C@H](Cc1ccccc1)NC(=O)c1cccc(O)c1C` [Example C1, (S)-4,4-Difluoro-1-[(2S,3S)-2-hydroxy-3-(3-hydroxy-2-methyl-benzoylamino)-4-phenyl-butyryl]-pyrrolidine-2-carboxylic acid 2-methyl-benzylamide.] was tested. Which pKi did it give?
A: 9.42

Q: `Cc1c(O)cccc1C(=O)N[C@@H](Cc1ccccc1)[C@H](O)C(=O)N1CSC(C)(C)[C@H]1C(=O)NCc1ccc2c(c1)OC(F)(F)O2` [Example A48, (R)-3-((2S,3S)-2-Hydroxy-3-{[1-(3-hydroxy-2-methyl-phenyl)-methanoyl]-amino}-4-phenyl-butanoyl)-5,5-dimethyl-thiazolidine-4-carboxylic acid (2,2-difluoro-benzo[1,3]dioxol-5-ylmethyl)-amide] was tested. Which pKi did it give?
A: 9.72

Q: `Cc1ccccc1CNC(=O)[C@H]1N(C(=O)[C@@H](O)[C@H](Cc2ccccc2)NC(=O)N2CC[C@@H](O)C2)CSC1(C)C` [Example B1, 3-(2-hydroxy-3-{[1-(3-hydroxy-pyrrolidin-yl)-methanoyl]-amino}-4-phenyl-butanoyl)-5,5-dimethyl-thiazolidine-4-carboxylic acid-2-methyl-benzylamide] was tested. Which pKi did it give?
A: 8.60

Q: How did the pKi turn out when `Cc1ccccc1CNC(=O)C1N(C(=O)[C@@H](O)[C@H](Cc2ccccc2)NC(=O)c2ccc(O)cn2)CSC1(C)C` (stereo partly drawn) [Example B46, Pyridine-2–5-hydroxy-carboxylic acid{(1S,2S)-1-benzyl-3-[5,5-dimethyl-4-(2-methyl-benzylcarbamoyl)-thiazolidin-3-yl]-2-hydroxy-3-oxo-propyl}-amide] was run?
A: 7.90

Q: With `Cc1c(O)cccc1C(=O)N[C@@H](Cc1ccccc1)[C@H](O)C(=O)N1CSC(C)(C)[C@H]1C(=O)NCc1ccc2c(c1)OCO2` [Example A22, 3-((2S,3S)-2-Hydroxy-3-{[1-(3-hydroxy-2-methyl-phenyl)-methanoyl]-amino}-4-phenyl-butanoyl)-5,5-dimethyl-thiazolidine-4-carboxylic acid (benzo[1,3]dioxol-5-ylmethyl)-amide] as the compound, how does the pKi read?
A: 9.49

Q: With `C=CCCC(=O)[C@H]1N(C(=O)[C@@H](O)[C@H](Cc2ccccc2)NC(=O)c2cccc(O)c2C)CSC1(C)C` [Example D1, N-[(1S,2S)-1-Benzyl-3-((R)-5,5-dimethyl-4-pent-4-enoyl-thiazolidin-3-yl)-2-hydroxy-3-oxo-propyl]-3-hydroxy-2-methyl-benzamide] as the compound, how does the pKi read?
A: > 11.00

Same assay, conditions: table of drawn compounds, unit inferred; read-out: Ki

Q: `Cc1ccccc1CNC(=O)[C@H]1N(C(=O)[C@@H](O)[C@H](Cc2ccccc2)NC(=O)Cc2c(F)cccc2F)CSC1(C)C` was tested. Which pKi did it give?
A: 7.14
